{
  "source": "patent US20090170880A1",
  "about": "“Methods and Means for the Treatment of Cancer” (priority 2007, published 2009)",
  "key": {"[1]": {"test_system": "intracranial Mel57-luc tumor xenografts", "assay": "Efficacy against intracranial Mel57-luc tumor xenografts", "format": "in vivo, nude mice", "method": "Intracranial Mel57-luc (luciferase transfected subline) tumor xenografts in wild-type nude mice (WT) and mdr1ab knockout nude mice (MDR) were established according to the protocol below (see Kemper et al, Eur J Cancer 42:3294-3303, 2006).\nThe Mel57 cell line (University Medical Centre, Nijmegen, The Netherlands) is a human melanoma cell line and was cultured in MEM (Life Technologies Inc., Breda, The Netherlands) supplemented with 10% foetal calf serum, non-essential amino acids, streptomycin, penicillin and sodium pyruvate (all Life Technologies), and incubated at 37° C. and 5% CO2 in humidified air. The cell line was further transfected by standard protocols with lipofectamine using a pBS vector containing a β-actin driven luciferase gene coupled via an internal ribosome […] to GFP. After expansion, GFP bright cells were sorted to single cells by FACS, expanded and sublines tested for luciferase expression by an in vitro bioluminescence assay (Promega, Benelux BV, Leiden, The Netherlands). Three to five sublines showing the highest luminescence activity were tested in vivo for tumour take and intracranial growth behaviour. To retrieve tumour cells for injection, the cell culture was trypsinised (trypsin 0.05%; EDTA 0.02%, Life Technologies), washed two times with Hanks Balanced Saline Solution (HBSS, Life Technologies Inc.), counted and resuspended in an appropriate volume of HBSS. The single cell suspension was kept on ice until injection. […]\nMel57-luc cells (100,000 cells/2 μl) were injected stereotactically in the brain as described in detail in Kemper et al^14. […] The amount of bioluminescence in each animal was calculated relative to the first measurement when therapy was initiated (arbitrarily set at 100%) and was log converted prior to data analysis. Tumor volume was measured by bioluminescence activity (see Kemper et al, Eur J Cancer 42:3294-3303, 2006)."}, "[2]": {"assay": "Brain penetration study, temozolomide i.v. in wild-type and knockout mice", "format": "in vivo", "conditions": "for AUC(0-t): 50 mg/kg, read-out: AUC0-7 h plasma", "method": "Based on previous work by Kim et al (11) we have developed a high-performance liquid chromatographic assay for the determination for quantification of temozolomide in medium used for transwell experiments and in mouse plasma and brain tissue homogenates for in vivo pharmacokinetic studies. Separation/quantification was achieved using a Symmetry® C18 column (150×2.0 mm; ID) together with a mobile phase of 7.5% of methanol in 0.5% acetic acid in water, delivered at a flow rate of 0.2 ml/min and UV detection at 330 nm ((PDA996 photodiode array detector; Waters, Milford, Mass., USA or SF 757 detector; Kratos, Ramsey, N.J., USA). Medium from transwell experiments was 10-fold diluted with 0.2% acetic acid in water and 50 μl was injected directly into the HPLC system. Temozolomide was extracted from the acidified plasma and brain tissue homogenate samples (200 μl) with 1.0 ml ethyl acetate. The dried extracts were subsequently dissolved in 100 μl of 5% methanol in 0.2% acetic acid in water and 50 μl was injected into the HPLC system. External calibration was performed since no internal standard was available. The lower and upper limit of quantitation was 0.020 and 10.0 μg/ml, respectively. Samples above the upper limit of quantification were first diluted with acidified blank human plasma. All samples from in vivo studies were analyzed in duplicate in 2 independent analytical series and repeated once more when the results differed by more than 10%.\nThe brain penetration study comprised cohorts of animals receiving temozolomide (50 mg/kg) by intravenous injection in the tail vein. Each cohort consisted of at least 40 animals in which at least 6 animals were used per time point (t=15 min, 1, 2, 4 and 7 hours post temozolomide administration). […] The mice were anesthetized with metoxyflurane and blood samples were obtained by cardiac puncture and collected on ice in tubes containing potassium EDTA as anticoagulant. The tubes were placed in melting ice, centrifuged within 60 min (10 min, 5000 g, 4° C.) to separate the plasma fraction, which was transferred into clean vials, mixed with 1 M hydrochloric acid (10+1; v/v) and stored at −20° C. until analysis. Immediately after cardiac puncture the mice were killed by cervical dislocation and the brains were dissected and placed on ice. Within 60 min they were weighed and homogenized in 3 ml of ice-cold 1% of BSA in 0.05 M phosphate buffer adjusted to pH 2 and stored at −20° C. until further analysis.\nPlasma and brain AUC0-7h values and standard errors were calculated by the linear trapezoidal rule using standard equations (14). The plasma half-life of temozolomide was calculated by linear regression analysis after log transformation of the concentration data using Microsoft Excel 2003. The brain-to-plasma ratio was calculated for each individual animal. The two-sided unpaired Student's t-test was used for statistical analysis of AUC values. Bonferroni's test for multiple comparisons was calculated using SPSS (v12.0.1; SPSS Inc, Chicago, Ill., USA) for brain and plasma levels and brain-to-plasma ratios determined at 2 h post temozolomide administration with the inhibitors and for analyzing the results of the in vivo efficacy study."}, "[3]": {"assay": "Stability of temozolomide in culture medium", "format": "physicochemical"}, "U87": {"test_system": "U87", "assay": "Antitumor response against U87 tumor", "format": "in vivo", "conditions": "one single dose of 25 mg/kg, results not shown"}, "[4]": {"conditions": "Bcrp1 knockout mice, i.v. 50 mg/kg"}, "[5]": {"conditions": "Bcrp, Mdr1ab knockout mice, i.v. 50 mg/kg"}, "[6]": {"conditions": "Mdr1ab knockout mice, i.v. 50 mg/kg"}},
  "note": "Entries after “also recorded” stand apart in the source; their conditions may differ. Read-outs that look alike come from different tables or passages of the source.",
  "data": [
    {"smiles": "Cn1nnc2c(C(N)=O)ncn2c1=O", "note": "[temozolomide, 8-carbamoyl-3-methyl-[3H]-imidazo[5,1-d]-1,2,3,5-tetrazin-4-one]", "values": [
      {"measurement": "response to temozolomide, P-gp (Mdr1ab) knockout versus wild-type nude mice", "setting": "[1]; oral 100 mg/kg for 5 consecutive days, bioluminescence, 100 mg/kg", "value": "greater reduction in tumor volume; also recorded: respond better"},
      {"measurement": "difference in efficacy, Bcrp1/Mdr1ab knockout versus wild-type nude mice", "setting": "[1]; oral 100 mg/kg/day×5 from day 7, bioluminescence", "value": "more pronounced"},
      {"measurement": "increase of brain penetration / accumulation relative to wild-type", "setting": "[2]; Bcrp1/Mdr1ab knockout mice, i.v. 50 mg/kg", "value": 50, "unit": "%"},
      {"measurement": "AUC0-7 h, brain", "setting": "[2]; [4]", "value": "44.78 ± 1.88^1 μg/g · h"},
      {"measurement": "T½plasma", "setting": "[2]; [4]", "value": "0.719 ± 0.017^ns h"},
      {"measurement": "AUC0-7 h, brain", "setting": "[2]; [5]", "value": "56.46 ± 1.17^1,2,3 μg/g · h"},
      {"measurement": "T½plasma", "setting": "[2]; [5]", "value": "0.705 ± 0.014^ns h"},
      {"measurement": "AUC(0-t)", "setting": "[2]; FVB, mouse, plasma, iv, Bcrp1 knockout mice, i.v. 50 mg/kg", "value": "63000 ± 2140", "unit": "ng·h/mL"},
      {"measurement": "AUC(0-t)", "setting": "[2]; FVB, mouse, plasma, iv, Bcrp, Mdr1ab knockout mice, i.v. 50 mg/kg", "value": "64500 ± 1290", "unit": "ng·h/mL"},
      {"measurement": "AUC(0-t)", "setting": "[2]; FVB, mouse, plasma, iv, Mdr1ab knockout mice, i.v. 50 mg/kg", "value": "62200 ± 2050", "unit": "ng·h/mL"},
      {"measurement": "AUC(0-t)", "setting": "[2]; FVB, mouse, plasma, iv, Wild-type mice, i.v. 50 mg/kg", "value": "65400 ± 2000", "unit": "ng·h/mL"},
      {"measurement": "half-life", "setting": "[2]; FVB, mouse, plasma, iv, mice, i.v. 50 mg/kg, read-out: plasma half-life, first-order elimination (converted)", "value": 42, "unit": "min"},
      {"measurement": "AUC0-7 h, brain", "setting": "[2]; [6]", "value": "44.51 ± 1.56^1 μg/g · h"},
      {"measurement": "T½plasma", "setting": "[2]; [6]", "value": "0.757 ± 0.021^ns h"},
      {"measurement": "AUC0-7 h, brain", "setting": "[2]; Wild-type mice, i.v. 50 mg/kg", "value": "37.73 ± 1.11", "unit": "µg·h/g"},
      {"measurement": "T½plasma", "setting": "[2]; Wild-type mice, i.v. 50 mg/kg", "value": "0.689 ± 0.019", "unit": "h"},
      {"measurement": "enhancement of the brain penetration", "setting": "[2]; absence of both P-gp and Bcrp1 versus wild-type", "value": 1.5, "unit": "fold"},
      {"measurement": "half-life", "setting": "[3]; culture medium at 37° C.", "value": "~30", "unit": "min"},
      {"measurement": "degradation", "setting": "[3]; pH 7.4, in 30 min", "value": "about 50%"},
      {"measurement": "antitumor response", "setting": "U87", "value": "significant antitumor response"}
    ]}
  ]
}
